{"source": "patent US9616107B2", "about": "“Therapy for kidney disease and/or heart failure” (priority 2011, dated 2017)", "assay": "Toxicology study of VD in canines: 5-day continuous subcutaneous infusion, plasma VD by radioimmunoassay, clinical observations", "assay_type": "in vivo", "settings": "for half-life / AUC(0-t) / AUC / Tmax / Cmax / t1/2: beagle; for AUC(0-t): data through 122 hours; for average steady state peak concentrations: n=1 per sex", "experimental": "VD was administered to canines via a subcutaneous delivery route. The dosing was performed at a high level to assess the toxicity of VD and to determine if a lethal dosing amount of the VD can be reached by subcutaneous administration.\nVD was administered subcutaneously to canines using a Medtronic Paradigm® infusion pump (model MMT772) over a period of 5 days. VD was obtained as an acetate salt (VD-acetate) from Bachem (lot 2502022) and prepared in Tris/Glycerin/m-cresol buffer at a concentration of 15 mg/mL. The Tris/Glycerin/m-cresol buffer was prepared by mixing 16.0 g glycerol, 6.05 g tris-(hydroxymethyl)-aminomethane (“Tris”), 2.50 g meta cresol in a 1.00 L volumetric flask. Approximately 900 mL nanopure water was added to the volumetric flask and the mixture was magnetically stirred to reach complete dissolution. 4 normal hydrochloric acid was used to adjust pH to […] at 25° C.\nVD was administered to one male and one female beagle canine at varying dosing amounts. Each canine received a first dosage level for 5 consecutive days followed by a 2-day washout period. Then, the same canines received a second, higher dosage level for an additional 5 consecutive days.\nPrior to the beginning of dosing with VD (Day 0), the canines were placed in a sling and the dose site on the dorsolateral thorax was shaved. The shaved area was swabbed with 70% isopropyl alcohol and allowed to dry. DuraPrep™ (3M) was then applied and allowed to dry for 3 minutes. The catheter of the infusion set (Medtronic Silhouette Paradigm® Infusion Set MMT-378) was placed subcutaneously and perpendicular to the spine, and attached to the skin. The extension set was then attached to a previously weighed reservoir filled with VD at a concentration of 15 mg/mL in the Tris/Glycerin/m-cresol buffer. The reservoir was inserted into the pump located in a jacket pocket and dosing was commenced. The jacket was then secured and a collar was placed on each canine. Every day during the 5-day period, the reservoirs were exchanged with new filled reservoirs at approximately the same time each day.\nAt the end of the first 5-day dosing period, the infusion sets and jackets were removed, the area where the catheter was placed was marked, and the animals were allowed a 2-day washout period prior to the next treatment. For the next treatment at the second dosing amount, a new infusion site was chosen on the skin, and the pump was prepared as before.\nThe daily dosage level during the first 5-day period (Group 1) was 1.44 mg/(kg·day) (or 1000 ng/(kg·min)) for each canine corresponding with a dosage volume of 0.096 ml/(kg·day). The total dose delivered to each canine over the first 5-day period was 7.20 mg/kg. […] Following the 2-day washout period, the daily dosage level was increased to 2.88 mg/(kg·day) (or 2000 ng/(kg·min)) for each canine corresponding with a dosage volume of 0.192 ml/(kg·day) during the second 5-day period (Group 2). The total dose delivered to each canine over the second 5-day period was 14.4 mg/kg.\nAll animals were observed twice daily during the first and second 5-day periods for mortality and moribund appearance. Clinical examinations were also performed daily for the animals after dosing began. Detailed physical examinations were conducted on Day 0 prior to dosing and on study Day 5 after the pumps and jackets were removed from the canines. Individual body weights were recorded twice weekly during a 7-day pretest period, on study Day 0 prior to dosing and study Day 5 after the pumps and jackets were removed from the canines. Body weights and body weight changes were calculated for the corresponding intervals. Individual food consumption was recorded daily during the pretest period and throughout the study.\nBlood samples for determination of plasma drug concentration were collected at 2, 4, 24 and 96 hours after the beginning of infusion, immediately prior to the end of infusion on Day 5, and 0.5, 1, 1.5, and 2 hours after the end of dosing. […]", "note": "“Also recorded” adds a separate entry of the source. Where two headings read alike, the source gives them in different places. Marks after values point to notes of the source that are not given here. Ends that are not written are not given here."}
{"sequence": "EVVPPQVLSEPNEEAGAALSPLPEVPPWTGEVSPAQR [VD, Vessel Dilator]", "values": [{"measurement": "half-life", "setting": "dog, in vivo, t1/2", "value": 0.735, "unit": "h"}, {"measurement": "AUC(0-t)", "setting": "dog, in vivo, female canine, 1.44 mg/kg/day (7.20 mg/kg), SC infusion 5 days", "value": 34700, "unit": "ng·h/mL"}, {"measurement": "AUC", "setting": "dog, in vivo, female canine, 1.44 mg/kg/day (7.20 mg/kg), SC infusion 5 days, τ 120 hours, read-out: AUCτ (AUGτ [sic])", "value": 34400, "unit": "ng·h/mL"}, {"measurement": "Tmax", "setting": "dog, in vivo, female canine, 1.44 mg/kg/day (7.20 mg/kg), SC infusion 5 days, hours after start of infusion, read-out: Tmax", "value": 96, "unit": "h"}, {"measurement": "AUC", "setting": "dog, in vivo, female canine, 2.88 mg/(kg·day), maximum tolerated dose not determined, read-out: AUC that a maximum tolerated dose would exceed", "value": "> 63300", "unit": "ng·h/mL"}, {"measurement": "Cmax", "setting": "dog, in vivo, female canine, 2.88 mg/(kg·day), maximum tolerated dose not determined, read-out: Cmax that a maximum tolerated dose would exceed", "value": "> 579", "unit": "ng/mL"}, {"measurement": "AUC(0-t)", "setting": "dog, in vivo, female canine, 2.88 mg/kg/day (14.4 mg/kg), SC infusion 5 days", "value": 64100, "unit": "ng·h/mL"}, {"measurement": "AUC", "setting": "dog, in vivo, female canine, 2.88 mg/kg/day (14.4 mg/kg), SC infusion 5 days, τ 120 hours, read-out: AUCτ (AUGτ [sic])", "value": 63300, "unit": "ng·h/mL"}, {"measurement": "Tmax", "setting": "dog, in vivo, female canine, 2.88 mg/kg/day (14.4 mg/kg), SC infusion 5 days, hours after start of infusion, read-out: Tmax", "value": 96, "unit": "h"}, {"measurement": "Cmax", "setting": "dog, in vivo, female canine, 2.88 mg/kg/day (14.4 mg/kg), SC infusion 5 days, read-out: Cmax", "value": 579, "unit": "ng/mL"}, {"measurement": "Tmax", "setting": "dog, in vivo, female canine, both dosages, after start of infusion, read-out: Tmax", "value": "~96", "unit": "h"}, {"measurement": "AUC(0-t)", "setting": "dog, in vivo, male canine, 1.44 mg/kg/day (7.20 mg/kg), SC infusion 5 days", "value": 31200, "unit": "ng·h/mL"}, {"measurement": "AUC", "setting": "dog, in vivo, male canine, 1.44 mg/kg/day (7.20 mg/kg), SC infusion 5 days, τ 120 hours, read-out: AUCτ (AUGτ [sic])", "value": 30800, "unit": "ng·h/mL"}, {"measurement": "AUC", "setting": "dog, in vivo, male canine, 2.88 mg/(kg·day), maximum tolerated dose not determined, read-out: AUC that a maximum tolerated dose would exceed", "value": "> 58200", "unit": "ng·h/mL"}, {"measurement": "Cmax", "setting": "dog, in vivo, male canine, 2.88 mg/(kg·day), maximum tolerated dose not determined, read-out: Cmax that a maximum tolerated dose would exceed", "value": "> 655", "unit": "ng/mL"}, {"measurement": "AUC(0-t)", "setting": "dog, in vivo, male canine, 2.88 mg/kg/day (14.4 mg/kg), SC infusion 5 days", "value": 58900, "unit": "ng·h/mL"}, {"measurement": "AUC", "setting": "dog, in vivo, male canine, 2.88 mg/kg/day (14.4 mg/kg), SC infusion 5 days, τ 120 hours, read-out: AUCτ (AUGτ [sic])", "value": 58200, "unit": "ng·h/mL"}, {"measurement": "survival and adverse effects on weight, food consumption or behavior", "setting": "both canines, 1.44 then 2.88 mg/(kg·day), 5 days each", "value": "survived to the scheduled study termination without appreciable adverse effects on weight, food consumption or behavior"}, {"measurement": "half-life", "setting": "both sexes, dog, in vivo, calculated half-life for elimination of Vessel Dilator in plasma", "value": "0.7 to 1.2", "unit": "h"}, {"measurement": "Tmax", "setting": "both sexes, dog, in vivo, sc", "value": 108, "unit": "h"}, {"measurement": "average steady state peak concentrations", "setting": "canines, 1000 ng/kg·min constant SC dosing 5 days", "value": "257 to 287", "unit": "ng/mL"}, {"measurement": "average steady state peak concentrations", "setting": "canines, 2000 ng/kg·min constant SC dosing 5 days", "value": "485 to 527", "unit": "ng/mL"}, {"measurement": "tolerance and toxicological effects of continuous subcutaneous infusion", "setting": "canines, up to 2.88 mg/(kg·day)", "value": "high tolerance and no noticeable toxicological effects; also recorded: well-tolerated"}, {"measurement": "maximum tolerated dose for prolonged subcutaneous administration", "setting": "canines, expected", "value": "> 2000", "unit": "ng/kg·min"}, {"measurement": "effects on body weight", "setting": "dog, in vivo", "value": "no effects on body weight"}, {"measurement": "effects related to food consumption", "setting": "dog, in vivo", "value": "no effects related to food consumption"}, {"measurement": "fluctuation of plasma concentrations of VD", "setting": "dog, in vivo", "value": "approximately 30%"}, {"measurement": "potential VD administration-related clinical observations", "setting": "dog, in vivo", "value": "reddened ears and/or reddened gums"}, {"measurement": "systemic exposure to VD (AUCτ and Cmax) versus dosage", "setting": "dog, in vivo, 2.88 mg/kg/day", "value": "increased proportionally with the increase in dosage"}, {"measurement": "plasma concentration up to which no toxicity issues were shown", "setting": "dogs, continuous five day subcutaneous infusion", "value": "~500", "unit": "ng/mL"}, {"measurement": "t1/2", "setting": "female, dog, in vivo, sc", "value": "1.21† h"}, {"measurement": "half-life", "setting": "female, dog, in vivo, sc, t1/2", "value": 0.801, "unit": "h"}, {"measurement": "Tmax", "setting": "male, dog, in vivo", "value": 120, "unit": "h"}, {"measurement": "Tmax", "setting": "male, dog, in vivo, sc", "value": 120, "unit": "h"}, {"measurement": "t1/2", "setting": "male, dog, in vivo, sc", "value": "0.793† h"}, {"measurement": "half-life", "setting": "male, dog, in vivo, sc, t1/2", "value": 0.735, "unit": "h"}]}
